Reference: US20260191825A1, “CONTRACEPTIVE COMPOUNDS AND DOSING FOR THE SAME” (YourChoice Therapeutics, Inc., priority 2024, published 2026)

What was measured:
male dogs = assay: Dog single dose non-GLP study; assay type: in vivo
CYP1A2 = CYP1A2 (Homo sapiens, UniProt P05177); assay: In vitro CYP inhibition (direct and time-dependent), CYP1A2; assay type: in vitro ADME
Excerpt: However, the likelihood of drug interactions is low since healthy participants who meet eligibility criteria will be enrolled in this Phase 1b/2a clinical trial. An allowance for select concomitant medications may be considered for select participants at the discretion of the investigator and/or sponsor if drug profiles are not anticipated to interact with Compound A. Such medications may include, but will not be limited to paracetamol or ibuprofen as assessed by both the PI and the Sponsor. […] Additional precautions to avoid grapefruit, pomegranates, star fruit, or Seville oranges for 7 days prior to admission, and juices and products containing these fruits for the duration of the study will be taken.

male Beagle dogs = assay: Dog 28-day repeat-dose GLP toxicity study; assay type: in vivo
[1] = Dog 28-day repeat-dose GLP toxicity study; assay type: in vivo; details: male, Beagle, in vivo; for NOAEL at 28 days: dog
[2] = test system: mice, rats, dogs and NHPs; assay: Research in nonclinical models (mice, rats, dogs and NHPs); assay type: in vivo, mouse, rat, dog, NHP
[3] = Rat GLP single dose study, PK at the NOAEL; details: male, in vivo, 1000 mg/kg, single dose 1,000 mg/kg (NOAEL)
male Cynomolgus macaques = assay: NHP repeat dose non-GLP efficacy study (sperm counts, MABEL); assay type: in vivo, cynomolgus macaque
Experimental: Animals and husbandry. Six (6) sexually mature, non-naïve male Cynomolgus macaques (8-15 years, 6-15 kg) were used. The animals were individually housed in a humidity- and temperature-controlled facility under a 12 h light/12 h dark diurnal cycle with two daily meals and water ad libitum. The animals were provided with cage toys and daily fresh fruits for environmental enrichment. The animals were acclimated for 2 weeks and observed twice daily to assess overall health and behavior. The animal use protocol was approved by WuXi App Tec's IACUC per the Association for Assessment and Accreditation of Laboratory Animal Care (AAALAC) guideline. The conduct of the study followed the Guidance for the Care and Use of Laboratory Animals (NRC 2011, 8th Edition), with a USDA Category C for the pain and distress level. The humane endpoints included: significant body weight drop of 20% within 7 days, severe adverse effort associated with the administration of the test article, pain and distress caused by any of the in-life procedures, and injury sustained during any time of the experiment that could impact the well-being of the animal (all determined by attending veterinarian). All animals were non-naïve and only animals that had normal hematology and serum chemistry parameters, and normal baseline sperm counts were included in the studies. After the end of the study, all animals were returned to the colony. Confounders were not controlled.
Dosing regimens. […] The formulation (Compound A in saline) was prepared freshly each day of dosing. […] Repeat dose administration: Three (3) Cohort 1 animals were dosed at 0.5 mg/kg/day (Day 1-46) followed by 1.5 mg/kg/day (Day 47-51), 2.5 mg/kg/day (Day 52-101) and 5 mg/kg/day (Day 102-108). Three (3) Cohort 2 animals were dosed at 5 mg/kg/day (Day 1-30) followed by 7.5 mg/kg/day (Day 31-37). No control animals were used in the single and repeat dose studies. Since bioavailability was assessed at time point zero in the PK study and sperm parameters were assessed at pre-dose in the efficacy studies, each animal served as its own control.
Semen collection and sperm count/concentration assessment. Semen samples were obtained once per week or once every other week via electroejaculation during the entire repeat dose study periods from all 3 animals per Cohort to assess sperm concentration and count. Samples were left at room temperature for 30 min to allow for liquefication. Liquefied semen was diluted with 3% NaCl solution for manual sperm count assessment using a hemocytometer. All samples were analyzed in triplicates. Sperm concentration per ejaculate was calculated with the following formula: Sperm concentration=Sperm count×104×Dilution factor. No data point was excluded from the analysis.
Testicular biopsy collection and histology. Testicular biopsies (2 per animal; one from the right and one from the left testicle) were taken 24 h after administering the last dose and on the last day of the recovery period from all 3 animals per Cohort to assess morphological changes. Preoperative care of animals consisted of food restriction and general examination. All surgical procedures were conducted using aseptic techniques and comprehensive physiologic monitoring. The animals were anesthetized with Zoletil 50 (5 mg/kg) by intramuscular (i.m.) injection. The scrotum was disinfected with iodine and 75% alcohol, and lidocaine (1%) was administered intradermally at the biopsy needle insertion site. Core biopsies (one per testis) were collected with a 16 G TSK starcut biopsy needle. Immediately after biopsy collection, animals received Meloxicam (0.2 mg/kg) and Ketorolac (10 mg) for pain relief, and Ceftriaxone sodium (0.5 g) as […] (all via i.m. injection). Meloxicam was given once daily for 3 consecutive days, Ketorolac twice daily for 2 days, and Ceftriaxone sodium once daily for 4 days post-collection. […]

rats = assay: Rat repeat dose non-GLP efficacy study (sperm counts, MABEL); assay type: in vivo
Experimental: Rat testicular toxicity reversibility characteristics and findings after repeat dosing are discussed in Section 3.1.4.
Rat 35-day repeat dose non-GLP study with a MABEL of 0.75 mg/kg/day.

[4] = In vitro stability in microsomes (rabbit); assay type: in vitro ADME; details: rabbits
Experimental: Respective half-lives (T1/2) were 9.5 hours (human), 23.1 hours (monkeys), >23.1 hours (mice), >23.1 hours (rats), 19.6 hours (rabbits), and >23.1 hours (dogs).

hERG = hERG (Homo sapiens, UniProt Q12809); assay: hERG GLP safety pharmacology study
Chain of hERG (Q12809 whole entry): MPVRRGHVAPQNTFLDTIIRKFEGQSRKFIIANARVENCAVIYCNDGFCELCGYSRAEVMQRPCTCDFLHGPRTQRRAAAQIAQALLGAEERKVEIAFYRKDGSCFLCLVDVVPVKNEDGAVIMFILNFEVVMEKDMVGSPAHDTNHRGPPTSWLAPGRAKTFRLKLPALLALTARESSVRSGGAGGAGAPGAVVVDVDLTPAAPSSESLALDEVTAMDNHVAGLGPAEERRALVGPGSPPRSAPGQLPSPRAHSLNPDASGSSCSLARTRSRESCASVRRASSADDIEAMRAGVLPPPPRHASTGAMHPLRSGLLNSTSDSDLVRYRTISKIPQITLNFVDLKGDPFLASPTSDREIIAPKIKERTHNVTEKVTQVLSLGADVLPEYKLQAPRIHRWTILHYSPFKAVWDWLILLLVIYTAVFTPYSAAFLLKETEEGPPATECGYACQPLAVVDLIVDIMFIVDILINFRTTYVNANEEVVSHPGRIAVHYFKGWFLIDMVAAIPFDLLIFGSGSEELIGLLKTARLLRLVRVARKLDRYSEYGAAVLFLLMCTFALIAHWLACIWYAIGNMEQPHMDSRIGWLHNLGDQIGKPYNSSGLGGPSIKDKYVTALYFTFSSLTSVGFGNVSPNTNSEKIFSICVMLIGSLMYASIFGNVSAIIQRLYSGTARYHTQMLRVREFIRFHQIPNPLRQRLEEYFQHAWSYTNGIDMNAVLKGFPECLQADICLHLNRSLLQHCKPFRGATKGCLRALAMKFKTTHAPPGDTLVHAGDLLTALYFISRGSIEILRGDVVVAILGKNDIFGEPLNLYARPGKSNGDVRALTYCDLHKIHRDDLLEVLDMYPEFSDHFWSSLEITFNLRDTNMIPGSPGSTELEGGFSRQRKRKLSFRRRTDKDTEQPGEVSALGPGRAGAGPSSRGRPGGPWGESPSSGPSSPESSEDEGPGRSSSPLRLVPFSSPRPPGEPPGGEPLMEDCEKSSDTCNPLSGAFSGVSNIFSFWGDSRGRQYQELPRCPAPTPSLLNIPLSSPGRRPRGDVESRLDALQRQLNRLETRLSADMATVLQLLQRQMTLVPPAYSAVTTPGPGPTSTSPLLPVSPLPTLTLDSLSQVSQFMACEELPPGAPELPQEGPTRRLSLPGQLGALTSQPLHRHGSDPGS

Chain of CYP1A2 (P05177 whole entry): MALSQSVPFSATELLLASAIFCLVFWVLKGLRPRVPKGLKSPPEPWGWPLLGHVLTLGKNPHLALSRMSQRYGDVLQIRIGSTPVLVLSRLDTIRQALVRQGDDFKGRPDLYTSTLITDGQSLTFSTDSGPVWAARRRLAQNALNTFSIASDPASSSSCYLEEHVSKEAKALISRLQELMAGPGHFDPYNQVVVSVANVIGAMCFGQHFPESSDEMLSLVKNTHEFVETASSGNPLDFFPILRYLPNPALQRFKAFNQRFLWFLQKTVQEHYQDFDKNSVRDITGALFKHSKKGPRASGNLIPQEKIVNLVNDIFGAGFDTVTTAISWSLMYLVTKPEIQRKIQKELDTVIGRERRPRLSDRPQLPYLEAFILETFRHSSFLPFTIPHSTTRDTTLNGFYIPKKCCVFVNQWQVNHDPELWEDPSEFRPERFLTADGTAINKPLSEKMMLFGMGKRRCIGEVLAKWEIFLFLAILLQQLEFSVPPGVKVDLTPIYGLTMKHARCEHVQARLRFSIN

SMILES: Cc1ccc(C2=CC(C)(C)Oc3ccc(-c4ccc(-c5ccc(C(=O)O)cc5)[nH]4)cc32)cc1 [Compound A]
- HED of tolerated single dose (male dogs; dogs, 500 mg/kg): 277.8 mg/kg
- Tolerated single dose (highest dose tested) (male dogs; male dogs, non-GLP study): 500 mg/kg
- IC50 (CYP1A2; CYP1A2): 30.1 µM
- Time-dependent inhibition (TDI) (CYP1A2; CYP1A2, 0.3 to 100 μM): no TDI potential
- HED (based on BSA) of MABEL (male Beagle dogs; dog): 1.4 mg/kg
- HED for 60 kg BW of MABEL (male Beagle dogs; dog): 84 mg
- HED for 80 kg BW of MABEL (male Beagle dogs; dog): 112 mg
- HED of not tolerated dose, fixed dose based on 80 kg body weight (male Beagle dogs; dog): ≥ 444.8 mg
- Not tolerated repeat daily dose (death and morbidity) (male Beagle dogs; dog): ≥ 10 mg/kg/day
- Doses with intended testicular toxicity confirmed by histopathology (male Beagle dogs; dog, 28-day dosing): ≥ 2.5 mg/kg/day
- MABEL (male Beagle dogs; dog, 28-day repeat dose GLP): 2.5 mg/kg/day
- Reversibility of spermatogenesis (male Beagle dogs; dog, 62-day recovery period): reversible
- Recovery of spermatogenesis (male Beagle dogs; dog, after 28-day dosing): 1 spermatogenic cycle
- Cross-section of canine testicle after dosing (FIG. 1B) (male Beagle dogs; dog, after dosing): no developing and mature sperm
- Cross-section of canine testicle after recovery period of no dosing (FIG. 1C) (male Beagle dogs; dog, after recovery period): return of developing sperm
- Cause of death or moribundity (male Beagle dogs; dogs, 10 or 25 mg/kg/day): renal toxicity
- NOAEL increase over the minimum efficacious dose in rats (male Beagle dogs; male, Beagle, dog, in vivo, 28 days): 22 fold
- HED for 60 kg BW (male Beagle dogs; of dog repeat-dose NOAEL): 168 mg
- HED for 80 kg BW (male Beagle dogs; of dog repeat-dose NOAEL): 224 mg
- Human equivalent dose of NOAEL at 28 days ([1]; dog 28-day GLP, NOAEL 5 mg/kg/day, read-out: HED of NOAEL): 2.8 mg/kg/day
- NOAEL at 28 days ([1]; 28-day repeat dose GLP, 2.5-25 mg/kg/day): 5 mg/kg/day
- NOAEL at 28 days ([1]; 28-day repeat-dose): 5 mg/kg
- Testosterone levels ([2]; mice, rats, dogs and NHPs): does not alter testosterone levels
- Virility ([2]; mice, rats, dogs and NHPs): does not affect virility
- Repeat dosing after which impairment of fertility / reduction of sperm counts was shown ([2]; nonclinical models): 3-4 weeks
- AUC(0-t) ([3]; Day 1, mean, read-out: AUC0-24): 560 µg·h/mL
- Tmax ([3]; Day 1, median): 48 h
- half-life ([3]; Day 1, median, calculated from only 2 animals): 16.9 h
- Cmax ([3]; Day 1, n = 20, mean): 45100 ng/mL
- HED (based on BSA) of MABEL (male Cynomolgus macaques; NHP): 0.8 mg/kg
- HED for 60 kg BW of MABEL (male Cynomolgus macaques; NHP): 48 mg
- HED for 80 kg BW of MABEL (male Cynomolgus macaques; NHP): 64 mg
- MABEL (male Cynomolgus macaques; NHP, 49-day repeat dose non-GLP): 2.5 mg/kg/day
- Lowest dose with decreases in sperm counts (male Cynomolgus macaques; NHP, repeat dose for 7 weeks): 2.5 mg/kg/day
- Reversibility of antispermatogenic effect (male Cynomolgus macaques; NHPs): 1.5-3.5 spermatogenic cycles
- HED (based on BSA) of MABEL (rats; rat): 0.1 mg/kg
- HED for 60 kg BW of MABEL (rats; rat): 7.2 mg
- HED for 80 kg BW of MABEL (rats; rat): 9.6 mg
- MABEL (rats; rat, 35-day repeat dose non-GLP): 0.75 mg/kg/day
- Lowest dose with decreases in sperm counts / minimum efficacious dose in rats (rats; rat, repeat dose for 36 days): 0.75 mg/kg/day
- Recovery from disruption of spermatogenesis (rats; rats, 28-day dosing at 0.75 mg/kg/day and 1 mg/kg/day): recover from disruption of spermatogenesis
- half-life ([4]; rabbit, read-out: Half-life (T1/2) in microsomes (converted)): 19.6 h
- Compound remaining intact ([4]; 90 minutes): 99%
- Main outcomes: hERG (hERG): Clean
